Experimental data published in patent US10471046B2, “Method for treating, preventing, or reducing the risk of skin infection” (Melinta Subsidiary Corp., priority 2014, dated 2019).
In brackets after ≈: the same amount, converted by molar mass.

Tested on: S. aureus
Assay: Minimum inhibitory concentrations (MICs) for S. aureus of exemplary compounds (Table 2)
Assay type: cell-based
Conditions: Staphylococcus aureus, minimum inhibitory concentrations for S. aureus; read-out: MICs
How it was run: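 Growth of S. aureus in media with or without compound, by broth microdilution in microtiter trays following NCCLS M7-A5 guidelines. Values are MICs in μg/mL.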

SMILES	MIC [µg/mL]
CC(=O)NC[C@H]1CN(c2ccc(-c3ccc(SCc4ccncc4)cc3)c(F)c2)C(=O)O1 [Compound 3001, N-{3-[2-Fluoro-4′-(pyridin-4-ylmethylsulfanyl)-biphenyl-4-yl]-2-oxo-oxazolidin-5-(S)-ylmethyl}-acetamide]	1 (≈ 2.21 µM)
CC(=O)NC[C@H]1CN(c2ccc(-c3ccc(CCn4ccnc4)cc3)c(F)c2)C(=O)O1 [Compound 1002, N-{3-[2-Fluoro-4′-(2-imidazol-1-yl-ethyl)-biphenyl-4-yl]-2-oxo-oxazolidin-5-(S)-ylmethyl}-acetamide]	2 (≈ 4.73 µM)
CC(=O)NC[C@H]1CN(c2ccc(-c3ccc([C@H](CO)NCc4ccncc4)cc3)c(F)c2)C(=O)O1 [Compound 4202, N-[3-(2-Fluoro-4′-{2-hydroxy-1-(R)-[(pyridin-4-ylmethyl)-amino]-ethyl}-biphenyl-4-yl)-2-oxo-oxazolidin-5-(S)-ylmethyl]-acetamide]	4 (≈ 8.36 µM)
CC(=O)NC[C@H]1CN(c2ccc(-c3ccc(CNC(=O)C4CNCCN4)cc3)c(F)c2)C(=O)O1 (mixture of isomers) [Compound 4322, Piperazine-2-(R/S)-carboxylic acid {4′-[5-(S)-(acetylamino-methyl)-2-oxo-oxazolidin-3-yl]-2′-fluoro-biphenyl-4-ylmethyl}-amide]	2
CC(=O)NC[C@H]1CN(c2ccc(-c3ccc(CNc4nc(CNC(=O)[C@H](C)N)ns4)cc3)c(F)c2)C(=O)O1 [Compound 2013, N-[5-({4′[5-(S)-(Acetylamino-methyl)-2-oxo-oxazolidin-3-yl]-2′-fluoro-biphenyl-4-ylmethyl}-amino)-[1,2,4]thiadiazol-3-ylmethyl]-2-(S)-amino-propionamide]	1 (≈ 1.85 µM)
CC(=O)NC[C@H]1CN(c2ccc(-c3ccc(CNC(=O)/C=C/c4cccn(C)c4=O)cc3)c(F)c2)C(=O)O1 [Compound 4194, N-{4′-[5-(S)-(Acetylamino-methyl)-2-oxo-oxazolidin-3-yl]-2′-fluoro-biphenyl-4-ylmethyl}-3-(1-methyl-2-oxo-1,2-dihydro-pyridin-3-yl)-acrylamide]	2 (≈ 3.86 µM)
CC(=O)NC[C@H]1CN(c2ccc(-c3ccc(CNC(=O)C(N)c4cccnc4)cc3)c(F)c2)C(=O)O1 (stereo partly drawn) [Compound 4294, N-{4′-[5-(S)-(Acetylamino-methyl)-2-oxo-oxazolidin-3-yl]-2′-fluoro-biphenyl-4-ylmethyl}-2-amino-2-pyridin-3-yl-acetamide]	4 (≈ 8.14 µM)
CC(=O)NC[C@H]1CN(c2ccc(-c3ccc(CNCc4ccc(S(N)(=O)=O)cc4)cc3)c(F)c2)C(=O)O1 [Compound 4093, N-(3-{2-Fluoro-4′-[(4-sulfamoyl-benzylamino)-methyl]-biphenyl-4-yl}-2-oxo-oxazolidin-5-(S)-ylmethyl)-acetamide]	8 (≈ 15.2 µM)
CC(=O)NC[C@H]1CN(c2ccc(-c3ccc(CNCc4nnn[nH]4)cc3)c(F)c2)C(=O)O1 [Compound 4282, N-[3-(2-Fluoro-4′-{[(1H-tetrazol-5-ylmethyl)-amino]-methyl}-biphenyl-4-yl)-2-oxo-oxazolidin-5-(S)-ylmethyl]-acetamide]	16 (≈ 36.4 µM)
CC(=O)NC[C@H]1CN(c2ccc(-c3ccc(Cn4ccnn4)c(F)c3)c(F)c2)C(=O)O1 [Compound 1009, N-[3-(2,3′-Difluoro-4′-[1,2,3]triazol-1-ylmethyl-biphenyl-4-yl)-2-oxo-oxazolidin-5-(S)-ylmethyl]-acetamide]	0.25 (≈ 0.585 µM)
CC(=O)NC[C@H]1CN(c2ccc(-c3ccc(CCSc4cnn[nH]4)cc3)c(F)c2)C(=O)O1 [Compound 2026, N-(3-{2-Fluoro-4′-[2-(3H-[1,2,3]triazol-4-ylsulfanyl)-ethyl]-biphenyl-4-yl}-2-oxo-oxazolidin-5-(S)-ylmethyl)-acetamide]	0.25 (≈ 0.549 µM)
COc1cc(CN(C)Cc2ccoc2)ccc1-c1ccc(N2C[C@H](CNC(C)=O)OC2=O)cc1F [Compound 4034, N-(3-{2-Fluoro-4′-[(furan-3-ylmethyl-methyl-amino)-methyl]-2′-methoxy-biphenyl-4-yl}-2-oxo-oxazolidin-5-(S)-ylmethyl)-acetamide]	32 (≈ 66.5 µM)
CSCCN(Cc1ccccc1)C[C@@H](O)c1ccc(-c2ccc(N3C[C@H](CNC(C)=O)OC3=O)cc2F)cc1 [Compound 4248, N-[3-(4′-{2-[Benzyl-(2-methylsulfanyl-ethyl)-amino]-1-(S)-hydroxy-ethyl}-2-fluoro-biphenyl-4-yl)-2-oxo-oxazolidin-5-(S)-ylmethyl]-acetamide]	4 (≈ 7.25 µM)
CC(=O)NC[C@H]1CN(c2ccc(-c3ccc(CNCCSc4nncs4)cc3)c(F)c2)C(=O)O1 [Compound 5003, N-[3-(2-Fluoro-4′-{[2-([1,3,4]thiadiazol-2-ylsulfanyl)-ethylamino]-methyl}-biphenyl-4-yl)-2-oxo-oxazolidin-5-(S)-ylmethyl]-acetamide]	1 (≈ 1.99 µM)
CC(=O)NC[C@H]1CN(c2ccc(-c3ccc(CNCc4cccs4)cc3)c(F)c2)C(=O)O1 [Compound 4137, N-[3-(2-Fluoro-4′-{[(thiophen-2-ylmethyl)-amino]-methyl}-biphenyl-4-yl)-2-oxo-oxazolidin-5-(S)-ylmethyl]-acetamide]	0.5 (≈ 1.1 µM)
CC(=O)NC[C@H]1CN(c2ccc(-c3ccc(CNCC4CC4)cc3)c(F)c2)C(=O)O1 [Compound 4300, N-(3-{4′-[(Cyclopropylmethyl-amino)-methyl]-2-fluoro-biphenyl-4-yl}-2-oxo-oxazolidin-5-(S)-ylmethyl)-acetamide]	4 (≈ 9.72 µM)
CC(=O)NC[C@H]1CN(c2ccc(-c3ccc(CSCc4ccccn4)cc3)c(F)c2)C(=O)O1 [Compound 4216, N-{3-[2-Fluoro-4′-(pyridin-2-ylmethylsulfanylmethyl)-biphenyl-4-yl]-2-oxo-oxazolidin-5-(S)-ylmethyl}-acetamide]	0.5 (≈ 1.07 µM)
CC(=O)NC[C@H]1CN(c2ccc(-c3ccc(C[S+]([O-])c4ncc[nH]4)cc3)c(F)c2)C(=O)O1 (stereo partly drawn) [Compound 2038, N-{3-[2-Fluoro-4′-(1H-imidazole-2-sulfinylmethyl)-biphenyl-4-yl]-2-oxo-oxazolidin-5-(S)-ylmethyl}-acetamide]	2 (≈ 4.38 µM)
CC(=O)NC[C@H]1CN(c2ccc(-c3ccc(CNCc4c(C)noc4C)cc3)c(F)c2)C(=O)O1 [Compound 4109, N-[3-(4′-{[(3,5-Dimethyl-isoxazol-4-ylmethyl)-amino]-methyl}-2-fluoro-biphenyl-4-yl)-2-oxo-oxazolidin-5-(S)-ylmethyl]-acetamide]	1 (≈ 2.14 µM)
CC(=O)NC[C@H]1CN(c2ccc(-c3ccc(NC(=O)Nc4ccncc4)cc3)c(F)c2)C(=O)O1 [Compound 6006, N-{3-[2-Fluoro-4′-(3-pyridin-4-yl-ureido)-biphenyl-4-yl]-2-oxo-oxazolidin-5-(S)-ylmethyl}-acetamide]	128 (≈ 276 µM)
CC(=O)NC[C@H]1CN(c2ccc(-c3ccc(CNS(=O)(=O)CCN4C(=O)c5ccccc5C4=O)cc3)c(F)c2)C(=O)O1 [Compound 4136, N-[3-(4′-{[2-(1,3-Dioxo-1,3-dihydro-isoindol-2-yl)-ethanesulfonylamino]-methyl}-2-fluoro-biphenyl-4-yl)-2-oxo-oxazolidin-5-(S)-ylmethyl]-acetamide]	8 (≈ 13.5 µM)
CC(=O)NC[C@H]1CN(c2ccc(-c3ccc(CN(Cc4nnnn4C)C(=O)OC(C)(C)C)cc3)c(F)c2)C(=O)O1 [Compound 4280, {4′-[5-(S)-(Acetylamino-methyl)-2-oxo-oxazolidin-3-yl]-2′-fluorobiphenyl-4-ylmethyl}-(1-methyl-1H-tetrazol-5-ylmethyl)-carbamic acid tert-butyl ester]	1 (≈ 1.81 µM)
CC(=O)NC[C@H]1CN(c2ccc(-c3ccc(Cn4cnc5c(NCC(F)(F)F)ncnc54)cc3)c(F)c2)C(=O)O1 [Compound 1104, N-(3-{2-Fluoro-4′-[6-(2,2,2-trifluoro-ethylamino)-purin-9-ylmethyl]-biphenyl-4-yl}-2-oxo-oxazolidin-5-(S)-ylmethyl)-acetamide]	1 (≈ 1.79 µM)
CC(=O)NC[C@H]1CN(c2ccc(-c3ccc(C(=O)NCc4cocn4)cc3)c(F)c2)C(=O)O1 [Compound 4205, 4′-[5-(S)-(Acetylamino-methyl)-2-oxo-oxazolidin-3-yl]-2′-fluoro-biphenyl-4-carboxylic acid (oxazol-4-ylmethyl)-amide]	1 (≈ 2.21 µM)
CC(=O)NC[C@H]1CN(c2ccc(-c3ccc(CNCc4ccccn4)cc3)c(F)c2)C(=O)O1 [Compound 4024, N-[3-(2-Fluoro-4′-{[(pyridin-2-ylmethyl)-amino]-methyl}-biphenyl-4-yl)-2-oxo-oxazolidin-5-(S)-ylmethyl]-acetamide]	1 (≈ 2.23 µM)
CC(=O)NC[C@H]1CN(c2ccc(-c3ccc(CNC(=O)c4ccc(F)cc4)cc3)c(F)c2)C(=O)O1 [Compound 4013, N-{4′-[5-(S)-(Acetylamino-methyl)-2-oxo-oxazolidin-3-yl]-2′-fluoro-biphenyl-4-ylmethyl}-4-fluoro-benzamide]	8 (≈ 16.7 µM)
CC(=O)NC[C@H]1CN(c2ccc(-c3ccc(CNCc4ccncc4F)cc3)c(F)c2)C(=O)O1 [Compound 4179, N-[3-(2-Fluoro-4′-{[(3-fluoro-pyridin-4-ylmethyl)-amino]-methyl}-biphenyl-4-yl)-2-oxo-oxazolidin-5-(S)-ylmethyl]-acetamide]	2 (≈ 4.29 µM)
CC(=O)NC[C@H]1CN(c2ccc(-c3ccc(S(=O)(=O)Cc4ccncc4)cc3)c(F)c2)C(=O)O1 [Compound 3003, N-{3-[2-Fluoro-4′-(pyridin-4-ylmethanesulfonyl)-biphenyl-4-yl]-2-oxo-oxazolidin-5-(S)-ylmethyl}-acetamide]	2 (≈ 4.14 µM)
CC(=O)NC[C@H]1CN(c2ccc(-c3ccc(Cn4nnnc4Cl)cc3)c(F)c2)C(=O)O1 [Compound 1083, N-{3-[4′-(5-Chloro-tetrazol-1-ylmethyl)-2-fluoro-biphenyl-4-yl]-2-oxo-oxazolidin-5-(S)-ylmethyl}-acetamide]	0.5 (≈ 1.12 µM)
CC(=O)NC[C@H]1CN(c2ccc(-c3ccc(CNCc4cn(C)c5ccccc45)cc3)c(F)c2)C(=O)O1 [Compound 4218, N-[3-(2-Fluoro-4′-{[(1-methyl-1H-indol-3-ylmethyl)-amino]-methyl}-biphenyl-4-yl)-2-oxo-oxazolidin-5-(S)-ylmethyl]-acetamide]	2 (≈ 4 µM)
